Assay results from article PMC9730820, “Near-infrared-dye labeled tumor vascular-targeted dimer GEBP11 peptide for image-guided surgery in gastric cancer” (Frontiers in Oncology, 2022).
Where a SMILES comes first, the peptide text is derived from it. Bridges are numbered along the chain shown (N, C = ends). [ ]: non-standard residue; d: D form. The star is where a group is joined. X1 = CC[N+]1=C(C=CC=CC=C2N(CCCCCC(=O)*)c3ccc4c(S(=O)(=O)O)cc(S(=O)(=O)O)cc4c3C2(C)C)C(C)(C)c2c1ccc1c(S(=O)(=O)O)cc(S(=O)(=O)[O-])cc21; Ahx = NCCCCCC(=O)O

Legend:
[1] = Ex vivo biodistribution of NIR signal in tumor and main organs; design: species or system athymic nude mice; details: mouse, in vivo, iv, 200 ul of 5 uM probe in PBS per mouse; ex vivo NIR signal, kidney relative to muscle, 24 h post-injection, n=3, bar label of Figure 3C
Experimental: (§1) Subcutaneous tumor xenograft models were used to detect the biodistribution of NIR signals. Mice were euthanized at 24h after injection of the labeled probes or free Cy5.5. All assays were done in triplicates. Then tumor xenografts and main organs (heart, lung, kidney, bone, muscle, brain, spleen, liver, skin and intestines) were harvested. Living Image version 4.7.3 Software (IVIS) was used to quantify the NIR fluorescence intensity at selected ROIs. All ROI data were collected after subtracting background autofluorescence. Differences in the fluorescence intensities of the ROIs between different probes were statistically analyzed.

[2] = system: SGC7901 subcutaneous xenograft; test: as above; design: species or system athymic nude mice; details: tumors and major organs harvested at 24h after injection
Experimental: as §1

[3] = system: Co-HUVECs (HUVECs co-cultured with SGC7901 cells); test: In vitro binding of Cy5.5 labeled GEBP11 probes, confocal fluorescence, with competitive inhibition by unlabeled GEBP11; assay type: cell-based, human; details: 1μM probe, 6h, 37°C
Experimental: (§2) SGC7901 cells and HUVECs were cocultured as previously described ([18]). Co- HUVECs (co-cultured HUVECs), HUVECs and SGC7901 cells were harvested at log-growth phase and characterized by bench top fluorescent microscopy. Cells were incubated with 1μM GEBP11-Cy5.5 or (GEBP11)2-ACP-Cy5.5 for 6h at 37°C in a humidified atmosphere with 5% CO2. Binding affinity of the probes to cultured cells were detected by laser scanning confocal microscope (FV3000, Olympus, Japan). Nucleus were re-stained with ProLong™ Gold Antifade Mountant with DAPI (Invitrogen, USA) at room temperature. For binding specificity assessment, cells were pretreated with 25μM unlabeled GEBP11 for 30min at 37°C before incubating with the labeled probes.

[4] = system: tumor vascular epithelial cells (CD31); test: Fluorescence microscopy co-localisation of probe with CD31 in resected tumor sections; details: frozen sections of resected samples, FITC-labeled anti-mouse CD31, confocal fluorescence microscopic examination
Experimental: Resected samples were embedded in optimum cutting temperature (OCT) compound (Leica, Germany), and 10μm-thick frozen tissue sections were cut on a cryostat microtome (Leica, Germany). The sections were fixed immediately with precooled isoacetone for 30min and stored at –20 °C. Hematoxylin and Eosin (H&E) staining was used for histological analysis. Tumor margins defined by H&E staining and NIR fluorescence were compared. All slides were scanned by using Pannoramic-250 Flash II slide-scanner (3D-Histech, Budapest, Hungary) and analyzed by Case viewer software (3D-Histech, Budapest, Hungary). Mouse tumor vascular endothelial cells were stained by FITC-labeled rat anti-mouse CD31 (89C2) antibody (CST, Boston, USA). Fluorescence microscopy was used to validate the colocalization of (GEBP11)2-ACP-Cy5.5 probe and tumor microvessel. Fluorescence microscopic images were acquired at 100x magnification by using Echo Revolve upside-down integrated fluorescence microscope (ECHO, USA).

HUVECs = test: In vitro binding of Cy5.5 labeled GEBP11 probes, confocal fluorescence; assay type: cell-based, human; details: 1μM probe, 6h, 37°C, laser scanning confocal microscope
Experimental: as §2

SGC7901 cells = test: as above; assay type: cell-based, human; details: 1μM probe, 6h, 37°C, laser scanning confocal microscope
Experimental: as §2

[5] = system: SGC7901 subcutaneous xenograft; test: Live NIR fluorescence imaging in subcutaneous gastric cancer xenograft model; assay type: in vivo, athymic nude mice
Source text: All mice were fed irradiated alfalfa-free rodent diet (Envigo Teklad, Madison, WI) to reduce background in stomach and gut for one week prior to the imaging experiments. The mice models were used for in vivo imaging and surgical procedures when xenograft diameter reached 5 to 10 mm.

[6] = system: SGC7901-Luc orthotopic gastric cancer xenograft; test: Live NIR fluorescence imaging in orthotopic gastric cancer xenograft model
Experimental: All animal experiments were conducted in compliance with protocols approved by the Institute of Animal Use Committee of Air Force Medical University. All gastric cancer xenograft models were established in 6–8 week old female athymic nude mice. The SGC7901-Luc or SGC7901-GFP cell suspension at a concentration of 2 × 10^6 cells/mL was prepared. For subcutaneous xenograft model, SGC7901-GFP cells suspension (100μL/mouse) were injected subcutaneously into the right upper limb (for in vivo binding affinity test) or lower flank of mouse (for in vivo biodistribution assay). The orthotopic gastric cancer xenograft models were established as described previously ([21]), In brief, open abdominal surgery was performed on the mice under general anesthesia, SGC7901-Luc cells suspension (100μL/mouse) were injected into the subserosa layer of the stomach.
Tumor growth was monitored by Caliper IVIS Lumina II (PerkinElmer, MA, USA). GFP fluorescence imaging was performed in subcutaneous xenograft model. Bioluminescence imaging (BLI) was performed to monitor tumor growth in the orthotopic xenograft models. Because of its higher penetrability and sensitivity, peritoneal metastasis can be visualized clearly as well. Before BLI was acquired, mice were injected with D-luciferin (150 mg/kg) by intraperitoneal injection and anesthetized with 2% isoflurane. Living Image software 4.7.3 (IVIS) was used to quantify bioluminescence signals.
Xenograft mice were injected with 200 ul GEBP11-Cy5.5, (GEBP11)2-ACP-Cy5.5 or free Cy5.5 (5 µM in PBS) via tail veins. Live NIR fluorescence imaging was performed at different time points. NIR Fluorescence intensity was quantified by region-of-interest (ROI) measurement using Living Image software 4.7.3 (IVIS).

[7] = system: SGC7901-Luc orthotopic gastric cancer xenograft; test: Real-time NIR fluorescence imaging-guided resection; assay type: in vivo, athymic nude mice; details: surgery 24h after probe injection, checked by BLI
Experimental: Orthotopic gastric cancer xenograft mice were anesthetized with a ketamine/xylazine mixture via intraperitoneal injection 24h after injection of (GEBP11)2-ACP-Cy5.5 probe. Real-time NIR fluorescence imaging was used to guide the removal of the primary cancer lesion and potential metastatic lesions. After resection, all surgical specimens and surgical beds were examined by NIR fluorescence imaging to confirm complete resection. To compare the efficacy of the dimer GEBP11 NIR imaging, BLI imaging pictures were taken before and after resection, the findings of BLI imaging were kept blind to the researcher who performed the surgery.

Row | Course of signal intensity at the tumor site ([6]; 200 ul of 5 µM via tail vein) | Structure (SMILES) | tissue to tissue ratio at 24 h [1] | Distribution of the NIR probe in tumor and organs, ex vivo fluorescence imaging [2] | Signal intensity compared with the mono probe ([3]; confocal microscope) | Fluorescence signal on Co-HUVECs after incubation with probe ([3]; laser scanning confocal microscope) | Co-localisation of probe fluorescence with CD31 [4] | Fluorescence signal on HUVECs after incubation with probe (HUVECs) | Fluorescence signal on SGC7901 after incubation with probe (SGC7901 cells) | Time at which NIR fluorescence signal at the tumor site peaked ([5]; 200 ul of 5 µM probe in PBS via tail vein, observed 0-96 h, IVIS ROI) | Time at which signal intensity at the tumor site peaked ([6]; 200 ul of 5 µM probe via tail vein, IVIS ROI) | NIR fluorescence signal at the tumor sites at 6h compared with GEBP11-Cy5.5 or free Cy5.5 ([6]; 6h after injection) | Residual cancer lesion after NIR-guided resection [7] | NIR signal at the tumor sites and site of accumulation, live imaging ([5]; 200 ul of 5 µM in PBS via tail vein)
1 | – | CC[N+]1=C(C=CC=CC=C2N(CCCCCC(=O)N[C@H]3CSSC[C@@H](C(=O)NCCCCCC(=O)N[C@H]4CSSC[C@@H](C(=O)O)NC(=O)[C@H](CCSC)NC(=O)[C@H](CC(C)C)NC(=O)[C@H](Cc5ccc(O)cc5)NC(=O)[C@H](CO)NC(=O)[C@H](CC(N)=O)NC(=O)[C@H](CCCCN)NC(=O)[C@H]([C@@H](C)O)NC4=O)NC(=O)[C@H](CCSC)NC(=O)[C@H](CC(C)C)NC(=O)[C@H](Cc4ccc(O)cc4)NC(=O)[C@H](CO)NC(=O)[C@H](CC(N)=O)NC(=O)[C@H](CCCCN)NC(=O)[C@H]([C@@H](C)O)NC3=O)c3ccc4c(S(=O)(=O)O)cc(S(=O)(=O)O)cc4c3C2(C)C)C(C)(C)c2c1ccc1c(S(=O)(=O)O)cc(S(=O)(=O)[O-])cc21 [(GEBP11)2-ACP-Cy5.5] (X1-CTKNSYLMC[Ahx]CTKNSYLMC-OH; disulfide 1-9, 11-19; N-terminus and C-terminus assumed) | 1.41 | Significant enrichment | much higher signal intensity than GEBP11-Cy5.5 | strong fluorescence signal | co-localize with CD31 | only scarce signal | only scarce signal | 24 h | 24 h | stronger NIR fluorescence signal | No residual cancer lesion could be detected | –
2 | dropped rapidly after 6h | CCN1\C(=C/C=C/C=C/C2=[N+](CCCCCC(=O)O)c3ccc4c(S(=O)(=O)O)cc(S(=O)(=O)O)cc4c3C2(C)C)C(C)(C)c2c1ccc1c(S(=O)(=O)[O-])cc(S(=O)(=O)O)cc21 [Free Cy5.5, Cy5.5, reference compound] | – | found in the kidney, without enrichment in the tumor | – | – | – | – | – | – | – | – | – | accumulated mainly in the kidneys, and no significant signal was detected at the tumor sites
